A short description of data set [1]: Caco-2 Permeability Assay. In kind it is in vitro ADME. Particulars: human, Caco-2, test compound 3 μM. Here is the method:
Caco-2 Permeability Assay
Thirteen to 27 days prior to assay, Caco-2 cells were seeded onto collagen-coated polycarbonate filter membranes in 24-well transwell plates at a density of 1.45×10^5 cells/cm^2, approximately 4.8×10^4 cells per well. The cells were grown in a culture medium consisting of DMEM supplemented with 10% fetal bovine serum, 10 mM HEPES, 1% nonessential amino acids, 2 mM L-glutamine, 100 U/mL penicillin-G, and 100 μg/mL streptomycin. The culture medium was replaced every 3 days and the cells were maintained at 37° C. in a 95% relative humidity and 5% CO2 atmosphere. The cells were evaluated for tight junction formation just prior to assay. The test compound was solubilized to 10 mM in 100% DMSO and diluted to 3 μM in assay buffer. Permeability studies were initiated by adding 200 μL assay buffer plus/minus compound to the apical transwell compartment and 600 μL assay buffer plus/minus compound to the basolateral compartment of the 24-well transwell low-binding cluster plate. For apical-to-basolateral (A to B) permeability (absorptive direction), buffer containing compound was placed in the apical compartment (donor wells), while buffer alone was placed in the corresponding basolateral compartments (receiver wells). For basolateral-to-apical (B to A) permeability (secretive direction), buffer containing compound was placed in the basolateral compartment (donor wells), while buffer alone was placed in the corresponding apical compartments (receiver wells). Transwells were then incubated for 2 hours at 37° C. in a 95% relative humidity and 5% CO2 atmosphere with gentle agitation. Following incubation, 100 μL was removed from each apical and basolateral compartment and transferred to 96-well low binding plates that had been previously loaded with 100 μL/well of acetonitrile containing 250 nM propranolol, 250 nM diclofenac, and 500 nM tolbutamide as internal standards. The samples were subsequently analyzed by LC-MS/MS to determine concentrations of compound.
In general terms: Caco-2 monolayers are a common model of the intestinal barrier.

The target in another data set is IRAK4 (Homo sapiens (Human), UniProt Q9NWZ3). As to the kind of experiment: IRAK4 Inhibition Assay. Particulars: ATP 500 μM; IRAK4 0.6 nM. Type of data set: biochemical. The procedure, abridged: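 Mobility-shift kinase assay: 0.6 nM IRAK4, 500 μM ATP, 1.5 μM fluorescent peptide, 60 min, room temperature. Percent inhibition was normalised between enzyme-free and DMSO-only wells.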
Sequence of IRAK4 (Q9NWZ3 whole entry, species assumed): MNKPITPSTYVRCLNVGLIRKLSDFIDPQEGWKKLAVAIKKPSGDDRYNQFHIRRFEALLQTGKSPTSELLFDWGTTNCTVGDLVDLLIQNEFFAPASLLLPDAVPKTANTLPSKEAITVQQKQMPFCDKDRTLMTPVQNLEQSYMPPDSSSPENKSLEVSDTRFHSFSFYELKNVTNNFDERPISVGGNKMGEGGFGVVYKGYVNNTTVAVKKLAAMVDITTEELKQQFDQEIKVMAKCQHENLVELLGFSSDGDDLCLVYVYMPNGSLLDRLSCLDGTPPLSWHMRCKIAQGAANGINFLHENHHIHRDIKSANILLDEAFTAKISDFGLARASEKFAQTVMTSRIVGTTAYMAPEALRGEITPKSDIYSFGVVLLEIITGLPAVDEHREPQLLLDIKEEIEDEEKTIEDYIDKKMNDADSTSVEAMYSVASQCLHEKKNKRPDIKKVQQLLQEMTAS

Data set [2] concerns Human whole blood stimulated with a TLR2 agonist (lipoteichoic acid), IL-6 levels. As to the kind of experiment: IRAK4 Whole Blood Assay. In kind it is cell-based. The following applies: Homo sapiens, lipoteichoic acid 10 μg/mL. The method in brief: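 IL-6 was quantified by cytometric bead assay in supernatants of human blood (ACD-A) stimulated for 5 h with lipoteichoic acid at 10 μg/mL final. Compound exposure preceded stimulation for 60 min at 37 °C, 5% CO2.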

Broadly, the Papp is the rate of passage across a membrane or cell layer, normalised by area and donor concentration. Read a high Papp as ready permeation. By IC50 is commonly meant the midpoint of a concentration-inhibition curve. Broadly, the EC50 is the concentration that produces a half-maximal response.

A value given as a limit tells only on which side of the number the result lay.

`CC(C)Nc1cc(-n2ncc3cc(C#N)cnc32)ncc1-c1cn([C@@H]2CCCC[C@@]2(C)O)nn1` (relative stereo) [Example 64, 1-(5-(1-((1R,2R)-2-hydroxy-2-methylcyclohexyl)-1H-1,2,3-triazol-4-yl)-4-(isopropylamino)pyridin-2-yl)-1H-pyrazolo[3,4-b]pyridine-5-carbonitrile]: the apparent permeability (Papp) at 2 h, 3 µM in data set [1] is 14.8 ×10⁻⁶ cm/s. Moreover, the IC50 on IRAK4 is 0.005 µM.

Regarding `N#Cc1cnc2c(cnn2-c2cc(NC3CC3)c(-c3cn([C@@H]4CNCC[C@H]4O)nn3)cn2)c1` (relative stereo) [Example 207, 1-(4-(cyclopropylamino)-5-(1-((trans)-4-hydroxypiperidin-3-yl)-1H-1,2,3-triazol-4-yl)pyridin-2-yl)-1H-pyrazolo[3,4-b]pyridine-5-carbonitrile], the Papp at 2 h, 3 µM in data set [1] is under 1.5 ×10⁻⁶ cm/s. In data set [2], this molecule gave an EC50 of 1.33 µM.

Molecule `COC(=O)N1CC[C@@H](n2cc(-c3cnc(-n4ncc5cc(C#N)cnc54)cc3NC3CC3)nn2)[C@](C)(O)C1` (relative stereo) [Example 208, (trans)-methyl 4-(4-(6-(5-cyano-1H-pyrazolo[3,4-b]pyridin-1-yl)-4-(cyclopropylamino)pyridin-3-yl)-1H-1,2,3-triazol-1-yl)-3-hydroxy-3-methylpiperidine-1-carboxylate] returned a Papp at 2 h, 3 µM in data set [1] of 2.6 ×10⁻⁶ cm/s. The half-inhibitory concentration (IC50) at IRAK4 was 0.006 µM. In data set [2], this molecule registered an EC50 of 1.51 µM.

In data set [1], `CC(C)Nc1cc(-n2ncc3cc(C#N)cnc32)ncc1-c1cn([C@@H]2CCNC[C@@H]2F)nn1` (relative stereo) [Example 209, 1-(5-(1-((cis)-3-fluoropiperidin-4-yl)-1H-1,2,3-triazol-4-yl)-4-(isopropylamino)pyridin-2-yl)-1H-pyrazolo[3,4-b]pyridine-5-carbonitrile] gave an apparent permeability coefficient (Papp) at 2 h, 3 µM of 2.4 ×10⁻⁶ cm/s. In addition, the response in data set [2] was half-maximal at 0.49 µM (EC50).

With `COC(=O)NCC1CC(c2cnc(-n3ncc4cc(C#N)cnc43)cc2NC(C)C)=NO1` (single isomer, unassigned) [Example 436, Methyl ((3-(6-(5-cyano-1H-pyrazolo[3,4-b]pyridin-1-yl)-4-(isopropylamino)pyridin-3-yl)-4,5-dihydroisoxazol-5-yl)methyl)carbamate], the apparent permeability coefficient (Papp) at 2 h, 3 µM in data set [1] is 31.9 ×10⁻⁶ cm/s. Moreover, the 50% effective concentration (EC50) in data set [2] turned out to be 0.29 µM.

Turning to `CCCn1cc(-c2cnc(-n3cnc4cc(C#N)cnc43)cc2NC(C)C)nn1` [Example 40, 3-(4-(isopropylamino)-5-(1-propyl-1H-1,2,3-triazol-4-yl)pyridin-2-yl)-3H-imidazo[4,5-b]pyridine-6-carbonitrile], the Papp at 2 h, 3 µM in data set [1] was determined as 27.8 ×10⁻⁶ cm/s. The IC50 on IRAK4 is 0.003 µM.

In the case of `CC(C)Nc1cc(-n2cnc3cc(C#N)cnc32)ncc1-c1cn(CCC(F)(F)F)nn1` [Example 42, 3-(4-(isopropylamino)-5-(1-(3,3,3-trifluoropropyl)-1H-1,2,3-triazol-4-yl)pyridin-2-yl)-3H-imidazo[4,5-b]pyridine-6-carbonitrile], in data set [1], the Papp at 2 h, 3 µM turned out to be 5.7 ×10⁻⁶ cm/s. Also, at IRAK4, the IC50 is 0.005 µM.

Molecule `CCCn1cc(-c2cnc(-n3cnc4cc(C#N)cnc43)cc2Nc2cnn(CC)c2)nn1` [Example 59] showed an apparent permeability coefficient (Papp) at 2 h, 3 µM in data set [1] of 20 ×10⁻⁶ cm/s.

In turn, `CC(C)Nc1cc(-n2ncc3cc(C#N)cnc32)ncc1-c1cn(C[C@@H](C)O)nn1` [Example 66, (R)-1-(5-(1-(2-hydroxypropyl)-1H-1,2,3-triazol-4-yl)-4-(isopropylamino)pyridin-2-yl)-1H-pyrazolo[3,4-b]pyridine-5-carbonitrile] yielded an apparent permeability coefficient (Papp) at 2 h, 3 µM in data set [1] of 5.9 ×10⁻⁶ cm/s. Also, the IC50 on IRAK4 was determined as 0.016 µM.

On to `CC(C)Nc1cc(-n2ncc3cc(C#N)cnc32)ncc1-c1cn(C2CN(CC(F)F)C2)nn1` [Example 153], for which the Papp at 2 h, 3 µM in data set [1] was 17.9 ×10⁻⁶ cm/s. This molecule had an EC50 in data set [2] of 0.27 µM.

For `CC(C)Nc1cc(-n2ncc3cc(C#N)cnc32)ncc1-c1cn([C@H]2CCNC[C@H]2O)nn1` [Example 177, 1-(5-(1-((3R,4S)-3-hydroxypiperidin-4-yl)-1H-1,2,3-triazol-4-yl)-4-(isopropylamino)pyridin-2-yl)-1H-pyrazolo[3,4-b]pyridine-5-carbonitrile], the apparent permeability coefficient (Papp) at 2 h, 3 µM in data set [1] was under 1.5 ×10⁻⁶ cm/s. The IC50 on IRAK4 is 0.013 µM.

Molecule `CCCc1cn(-c2cnc(-n3cnc4cc(C#N)cnc43)cc2NC(C)C)nn1` [Example 278, 3-(4-(isopropylamino)-5-(4-propyl-1H-1,2,3-triazol-1-yl)pyridin-2-yl)-3H-imidazo[4,5-b]pyridine-6-carbonitrile] showed an apparent permeability coefficient (Papp) at 2 h, 3 µM in data set [1] of 23.7 ×10⁻⁶ cm/s. In addition, the 50% inhibitory concentration (IC50) at IRAK4 came out at 0.015 µM.

Molecule `CCNC1CCC(c2cn(-c3cnc(-n4ncc5cc(C#N)cnc54)cc3NC(C)C)nn2)CC1` (centres unmarked) [Example 356, 1-(5-(4-((1s,4s)-4-(ethylamino)cyclohexyl)-1H-1,2,3-triazol-1-yl)-4-(isopropylamino)pyridin-2-yl)-1H-pyrazolo[3,4-b]pyridine-5-carbonitrile] displayed an apparent permeability coefficient (Papp) at 2 h, 3 µM in data set [1] of under 1.5 ×10⁻⁶ cm/s. The molecule also registered a 50% effective concentration (EC50) in data set [2] of 0.27 µM.

Consider `CC(C)(O)CCc1cn(-c2cnc(-n3ncc4cc(C#N)cnc43)cc2NC2COC2)nn1` [Example 359, 1-(5-(4-(3-hydroxy-3-methylbutyl)-1H-1,2,3-triazol-1-yl)-4-(oxetan-3-ylamino)pyridin-2-yl)-1H-pyrazolo[3,4-b]pyridine-5-carbonitrile], for which the Papp at 2 h, 3 µM in data set [1] was under 1.5 ×10⁻⁶ cm/s. In data set [2], this molecule had a half-maximal effective concentration (EC50) of 0.22 µM.

In data set [1], `CC(C)Nc1cc(-n2ncc3cc(C#N)cnc32)ncc1-n1cc(C2CCN(C(=O)CC(C)(C)O)CC2)nn1` [Example 360, 1-(5-(4-(1-(3-hydroxy-3-methylbutanoyl)piperidin-4-yl)-1H-1,2,3-triazol-1-yl)-4-(isopropylamino)pyridin-2-yl)-1H-pyrazolo[3,4-b]pyridine-5-carbonitrile] had a Papp at 2 h, 3 µM of 3.6 ×10⁻⁶ cm/s. In addition, in data set [2], a half-maximal effect (EC50) was put at 0.31 µM.

In data set [1], `CC(C)(O)CCc1cn(-c2cnc(-n3ncc4cc(C#N)cnc43)cc2NC2CCC(F)CC2)nn1` (centres unmarked) [Example 374, 1-(4-(((1r,4r)-4-fluorocyclohexyl)amino)-5-(4-(3-hydroxy-3-methylbutyl)-1H-1,2,3-triazol-1-yl)pyridin-2-yl)-1H-pyrazolo[3,4-b]pyridine-5-carbonitrile] displayed a Papp at 2 h, 3 µM of 3.2 ×10⁻⁶ cm/s. The same molecule displayed a half-maximal effective concentration (EC50) in data set [2] of 0.38 µM.

Consider `CC(=O)NC1CCC(c2cc(-c3cnc(-n4ncc5cc(C#N)cnc54)cc3NC(C)C)on2)CC1` (centres unmarked) [Example 410, N-((1s,4s)-4-(5-(6-(5-cyano-1H-pyrazolo[3,4-b]pyridin-1-yl)-4-(isopropylamino)pyridin-3-yl)isoxazol-3-yl)cyclohexyl)acetamide], for which the Papp at 2 h, 3 µM in data set [1] was 14.8 ×10⁻⁶ cm/s. The molecule also gave an EC50 in data set [2] of 0.3 µM.

For the molecule `COC(=O)NC1CCC(c2cc(-c3cnc(-n4ncc5cc(C#N)cnc54)cc3NC(C)C)on2)CC1` (centres unmarked) [Example 411, methyl ((1s,4s)-4-(5-(6-(5-cyano-1H-pyrazolo[3,4-b]pyridin-1-yl)-4-(isopropylamino)pyridin-3-yl)isoxazol-3-yl)cyclohexyl)carbamate], the Papp at 2 h, 3 µM in data set [1] came to 26.9 ×10⁻⁶ cm/s. In data set [2], this molecule displayed an EC50 of 0.43 µM.

Regarding `CC(C)Nc1cc(-n2ncc3cc(C#N)cnc32)ncc1-c1cc(CC(C)(C)O)on1` [Example 438, 1-(5-(5-(2-hydroxy-2-methylpropyl)isoxazol-3-yl)-4-(isopropylamino)pyridin-2-yl)-1H-pyrazolo[3,4-b]pyridine-5-carbonitrile], the Papp at 2 h, 3 µM in data set [1] is 27.3 ×10⁻⁶ cm/s. In data set [2], this molecule gave a half-maximal effective concentration (EC50) of 0.23 µM.

For the origin of these results see patent US10294229B2, “Heteroaryl substituted aminopyridine compounds” (BRISTOL-MYERS SQUIBB COMPANY, priority 2015, dated 2019).
